{"source": "patent US20140309400A1", "about": "“Use of Cell-Permeable Peptide Inhibitors of the JNK Signal Transduction Pathway for the Treatment of Dry Eye Syndrome” (Xigen Inflammation Ltd., priority 2011, published 2014)", "format_in_all_cases": "in vivo, female C57BL/6 mice", "key": {"[1]": {"test_system": "mouse model of scopolamine-induced dry eye", "assay": "Histopathology of the right eye (cornea) at necropsy Day 22 in scopolamine-induced dry eye mice", "experimental": "The study consisted of a total of 5 groups of female C57BL/6 mice, comprising 4 groups of 12 mice each and an additional group of 4 mice. Bilateral short-term dry eye was induced by a combination of scopolamine hydrobromide (Sigma-Aldrich Corp., St. Louis, Mo.) injection (subcutaneous (SC), four times daily, 0.5 mg/dose, Days 0-21) and by exposing mice to the drying environment of constant air draft. Starting on Day 1, mice of Groups 1-4 were treated three times daily (TID) for 21 days with bilateral topical ocular (oculus uterque; OU) administration (5 μL/eye/dose) of vehicle (0.9% sterile saline; negative control article); or the peptide of SEQ ID NO: 11 (0.06%, 0.25% and 0.6%). […] During the in-life (treatment) period, clinical observations were recorded once daily; slit-lamp examination (SLE) with corneal fluorescein staining, tear break-up time test (TBUT), and phenol red thread test (PRTT) were performed three times per week. […] Tissues from the right eyes (oculus dexter, OD) were fixed and then evaluated microscopically. […] Stained slides were evaluated via light microscopy. […] These tissues were scored for injury based upon a 0-4 scale, with 0 being normal, 1 being minimal, 2 being mild, 3 being moderate, and 4 being severe. […] Conjunctivae were scored for erosion and inflammation as well as presence or absence of goblet cells."}, "[2]": {"test_system": "mouse model of scopolamine-induced dry eye", "assay": "Tear break-up time (TBUT) test in scopolamine-induced dry eye mice", "conditions": "for Mean Calculated TBUT AUC: TID, OU, 5 μL/eye, Days 1 to 21", "experimental": "The study consisted of a total of 5 groups of female C57BL/6 mice, comprising 4 groups of 12 mice each and an additional group of 4 mice. Bilateral short-term dry eye was induced by a combination of scopolamine hydrobromide (Sigma-Aldrich Corp., St. Louis, Mo.) injection (subcutaneous (SC), four times daily, 0.5 mg/dose, Days 0-21) and by exposing mice to the drying environment of constant air draft. Starting on Day 1, mice of Groups 1-4 were treated three times daily (TID) for 21 days with bilateral topical ocular (oculus uterque; OU) administration (5 μL/eye/dose) of vehicle (0.9% sterile saline; negative control article); or the peptide of SEQ ID NO: 11 (0.06%, 0.25% and 0.6%). Mice of Group 5 were maintained as un-induced, (no dry eye) untreated controls. During the in-life (treatment) period, clinical observations were recorded once daily; slit-lamp examination (SLE) with corneal fluorescein staining, tear break-up time test (TBUT), and phenol red thread test (PRTT) were performed three times per week. Necropsies were performed on Day 22; eyes, eye lids, conjunctivae, and lacrimal glands were collected from both eyes of each animal. Tissues from the right eyes (oculus dexter, OD) were fixed and then evaluated microscopically. Tissues from the left eyes (oculus sinister; OS) were flash-frozen in liquid nitrogen and stored frozen at −80° C. for possible subsequent analyses. The TBUT test was conducted three times weekly by measuring the time elapsed in seconds between a complete blink after application of fluorescein to the cornea and the appearance of the first random dry spot in the tear film. […] At least ninety seconds later, corneal epithelial damage was graded using a slit-lamp with a cobalt blue filter after another drop of 0.1% fluorescein was reapplied to the cornea; the cornea then was scored per the Draize ocular scale."}, "[3]": {"test_system": "mouse model of scopolamine-induced dry eye", "assay": "Phenol red thread tear test (PRTT) in scopolamine-induced dry eye mice", "conditions": "for Mean PRTT AUC: TID, OU, 5 μL/eye, AUC Day 7-21", "experimental": "The study consisted of a total of 5 groups of female C57BL/6 mice, comprising 4 groups of 12 mice each and an additional group of 4 mice. Bilateral short-term dry eye was induced by a combination of scopolamine hydrobromide (Sigma-Aldrich Corp., St. Louis, Mo.) injection (subcutaneous (SC), four times daily, 0.5 mg/dose, Days 0-21) and by exposing mice to the drying environment of constant air draft. Starting on Day 1, mice of Groups 1-4 were treated three times daily (TID) for 21 days with bilateral topical ocular (oculus uterque; OU) administration (5 μL/eye/dose) of vehicle (0.9% sterile saline; negative control article); or the peptide of SEQ ID NO: 11 (0.06%, 0.25% and 0.6%). Mice of Group 5 were maintained as un-induced, (no dry eye) untreated controls. During the in-life (treatment) period, clinical observations were recorded once daily; slit-lamp examination (SLE) with corneal fluorescein staining, tear break-up time test (TBUT), and phenol red thread test (PRTT) were performed three times per week. Necropsies were performed on Day 22; eyes, eye lids, conjunctivae, and lacrimal glands were collected from both eyes of each animal. Tissues from the right eyes (oculus dexter, OD) were fixed and then evaluated microscopically. Tissues from the left eyes (oculus sinister; OS) were flash-frozen in liquid nitrogen and stored frozen at −80° C. for possible subsequent analyses. Tear production was measured three times a week in both eyes using PRTT test strips (Zone-Quick; Menicon, Nagoya, Japan). Prior to the first treatment of the day, a thread was applied to the lateral canthus of the conjunctival fornix of each eye for 30 seconds under slit-lamp biomicroscopy. Tear migration up the tread (i.e., the length of the wetted cotton thread) was measured using a millimeter scale."}}, "note": "Non-standard residues stand in square brackets, D forms with d."}
{"substance": "NH2-DQSRPVQPFLNLTTPRKPRPPRRRQRRKKRG-COOH (H-[dD][dQ][dS][dR][dP][dV][dQ][dP][dF][dL][dN][dL][dT][dT][dP][dR][dK][dP][dR][dP][dP][dR][dR][dR][dQ][dR][dR][dK][dK][dR]G-OH) [SEQ ID NO: 11]", "values": [{"measurement": "Corneal changes (histopathology) in comparison to the other treatment groups", "setting": "[1]; Group 2, low dose (0.06%)", "result": "slightly more severe"}, {"measurement": "Reducing/ameliorating the corneal changes (histopathology)", "setting": "[1]; high dose (0.6%)", "result": "most effective"}, {"measurement": "Mean Calculated TBUT AUC", "setting": "[2]; Group 2: 0.06% (low dose)", "result": 88.54}, {"measurement": "Mean Calculated TBUT AUC", "setting": "[2]; Group 3: 0.25% (mid dose)", "result": 91.19}, {"measurement": "Mean Calculated TBUT AUC", "setting": "[2]; Group 4: 0.6% (high dose)", "result": 89.98}, {"measurement": "TBUT means compared with vehicle group", "setting": "[2]; low, medium and high dose (Groups 2, 3 and 4)", "result": "above the vehicle group"}, {"measurement": "Dose dependence of TBUT", "setting": "[2]; low, mid and high dose levels (Groups 2-4)", "result": "generally dose-dependent increases in TBUT"}, {"measurement": "Dose dependence of PRTT", "setting": "[3]; 0.06%, 0.25% and 0.6% (Groups 2, 3 and 4)", "result": "generally dose-dependent increases in PRTT"}, {"measurement": "Mean PRTT AUC", "setting": "[3]; Group 2: 0.06% (low dose)", "result": 39.96}, {"measurement": "Mean PRTT AUC", "setting": "[3]; Group 3: 0.25% (mid dose)", "result": 42.79}, {"measurement": "Mean PRTT AUC", "setting": "[3]; Group 4: 0.6% (high dose)", "result": 43.17}]}
